ChEMBL document CHEMBL1201862, “PubChem BioAssay data set” (2004)
Counter-ions that a name gives are not always drawn.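 Five compound concentrations were applied to cells in 96-well plates for 48 hours; endpoints were derived by simple linear interpolation of the resulting dose-response curve. GI50 marks 50% less growth.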 Calls of active or inactive are those of the source. Cut-off read from the data, not from the text of the source: active = GI50 up to about 1.1 µM and inactive = higher.

Legend:
Assay in all cases: NCI-60 cell line screen, 48 h
HOP-62 = tested on: HOP-62
Hs-578T = tested on: Hs-578T
ACHN = tested on: ACHN
HT-29 = tested on: HT-29
SW-620 = tested on: SW-620
MCF7 = tested on: MCF7
NCI-H226 = tested on: NCI-H226
M14 = tested on: M14
CAKI-1 = tested on: CAKI-1
EKVX = tested on: EKVX
SNB-75 = tested on: SNB-75
SK-MEL-2 = tested on: SK-MEL-2
MOLT-4 = tested on: MOLT-4
T47D = tested on: T47D
MDA-MB-435 = tested on: MDA-MB-435
NCI-H522 = tested on: NCI-H522
SF-539 = tested on: SF-539
NCI-H460 = tested on: NCI-H460
MDA-N = tested on: MDA-N

| SMILES | GI50 (HOP-62) | GI50 (Hs-578T) | GI50 (ACHN) | GI50 (HT-29) | GI50 (SW-620) | GI50 (MCF7) | GI50 (NCI-H226) | GI50 (M14) | GI50 (CAKI-1) | GI50 (EKVX) | GI50 (SNB-75) | GI50 (SK-MEL-2) | GI50 (MOLT-4) | GI50 (T47D) | GI50 (MDA-MB-435) | GI50 (NCI-H522) | GI50 (SF-539) | GI50 (NCI-H460) | GI50 (MDA-N) |
| --- | --- | --- | --- | --- | --- | --- | --- | --- | --- | --- | --- | --- | --- | --- | --- | --- | --- | --- | --- |
| COc1cc2nc(-c3cccs3)oc(=O)c2cc1OC | 17.6 µM (inactive) | 72.1 µM (inactive) | > 100 µM (inactive) | > 100 µM (inactive) | > 100 µM (inactive) | > 100 µM (inactive) | 50.7 µM (inactive) | > 100 µM (inactive) | > 100 µM (inactive) | > 100 µM (inactive) | > 100 µM (inactive) | > 100 µM (inactive) | > 100 µM (inactive) | > 100 µM (inactive) | > 100 µM (inactive) | > 100 µM (inactive) | 57.3 µM (inactive) | > 100 µM (inactive) | – |
| CCOc1ccc(N/C(=C(/C(Cl)=C(/Cl)Nc2ccccc2)[N+](=O)[O-])n2nnc3ccccc32)cc1 | 24.5 µM (inactive) | – | 25.8 µM (inactive) | – | – | 35.7 µM (inactive) | 40.1 µM (inactive) | 16 µM (inactive) | 23.5 µM (inactive) | 28.8 µM (inactive) | 57.1 µM (inactive) | 26.3 µM (inactive) | 14.8 µM (inactive) | 40.5 µM (inactive) | 29.4 µM (inactive) | 14 µM (inactive) | – | 27 µM (inactive) | 19.8 µM (inactive) |
| CC1(C)CC(=O)C(=CNc2nc(-c3ccccc3)cs2)C(=O)C1 | 34.2 µM (inactive) | – | 40.5 µM (inactive) | 33.6 µM (inactive) | 31.4 µM (inactive) | 29.2 µM (inactive) | 29 µM (inactive) | 41.1 µM (inactive) | – | 26.2 µM (inactive) | 33.7 µM (inactive) | 34.7 µM (inactive) | 32.4 µM (inactive) | 32.7 µM (inactive) | 24.9 µM (inactive) | – | 26.4 µM (inactive) | 30.7 µM (inactive) | 30.1 µM (inactive) |
| CC(CN1c2ccccc2Sc2ccccc21)N(C)C (stereo not given) [PROMETHAZINE HYDROCHLORIDE] | 15.2 µM (inactive) | – | 17 µM (inactive) | 16.4 µM (inactive) | 23.6 µM (inactive) | 25.8 µM (inactive) | 19.1 µM (inactive) | 17.3 µM (inactive) | 18.5 µM (inactive) | 22.6 µM (inactive) | 3.78 µM (inactive) | 18 µM (inactive) | 19.8 µM (inactive) | 21.5 µM (inactive) | 16.9 µM (inactive) | 19.8 µM (inactive) | 19.1 µM (inactive) | 17.9 µM (inactive) | – |
| O=C(CCCN1CCC(O)(c2ccc(Cl)cc2)CC1)c1ccc(F)cc1 [HALOPERIDOL] | 36.1 µM (inactive) | 25.4 µM (inactive) | 39.4 µM (inactive) | 18.8 µM (inactive) | 18.2 µM (inactive) | 37.9 µM (inactive) | 32.2 µM (inactive) | 18.5 µM (inactive) | 10.1 µM (inactive) | 82.4 µM (inactive) | 23.8 µM (inactive) | 20.7 µM (inactive) | 89.7 µM (inactive) | 37.5 µM (inactive) | 17.5 µM (inactive) | 20.6 µM (inactive) | 26.1 µM (inactive) | 18.8 µM (inactive) | – |
| COCCOCN(C(=O)C1=CCC2(CC1)OCCO2)c1ccccc1I | > 50 µM (inactive) | – | > 50 µM (inactive) | > 50 µM (inactive) | > 50 µM (inactive) | > 50 µM (inactive) | > 50 µM (inactive) | > 50 µM (inactive) | > 50 µM (inactive) | 29.2 µM (inactive) | > 50 µM (inactive) | > 50 µM (inactive) | > 50 µM (inactive) | > 50 µM (inactive) | > 50 µM (inactive) | – | – | > 50 µM (inactive) | > 50 µM (inactive) |
| C[C@]12CCC3c4ccc(O)cc4CC[C@H]3C1CC(=O)NC2=O (stereo not given in full) | > 10 µM (inactive) | – | > 10 µM (inactive) | > 10 µM (inactive) | > 10 µM (inactive) | > 10 µM (inactive) | > 10 µM (inactive) | > 10 µM (inactive) | > 10 µM (inactive) | – | – | > 10 µM (inactive) | > 10 µM (inactive) | > 10 µM (inactive) | > 10 µM (inactive) | – | > 10 µM (inactive) | > 10 µM (inactive) | > 10 µM (inactive) |
| N=C(N)N/N=C\c1c(-c2cccc([N+](=O)[O-])c2)nc2sc(Cl)cn12 | – | 43.4 µM (inactive) | 29.2 µM (inactive) | 1.73 µM (inactive) | 3.18 µM (inactive) | 2.61 µM (inactive) | 53.2 µM (inactive) | 3.49 µM (inactive) | 2.33 µM (inactive) | 3.15 µM (inactive) | 1.52 µM (inactive) | 1.96 µM (inactive) | 2 µM (inactive) | 1.64 µM (inactive) | 2.07 µM (inactive) | 1.98 µM (inactive) | 2.6 µM (inactive) | 2.67 µM (inactive) | – |
| C/C(=N\Nc1ccccc1Br)c1cccc(/C(C)=N/Nc2ccccc2Br)n1 | 49.8 µM (inactive) | – | > 100 µM (inactive) | > 100 µM (inactive) | > 100 µM (inactive) | 54.1 µM (inactive) | > 100 µM (inactive) | > 100 µM (inactive) | 49 µM (inactive) | > 100 µM (inactive) | 13 µM (inactive) | 39 µM (inactive) | > 100 µM (inactive) | – | 30 µM (inactive) | – | 88.5 µM (inactive) | > 100 µM (inactive) | 31.7 µM (inactive) |
| O=C1O/C(=C/c2ccccc2)C(c2ccccc2)=C1O | 29.4 µM (inactive) | – | 74 µM (inactive) | > 100 µM (inactive) | 43.7 µM (inactive) | 34.4 µM (inactive) | > 100 µM (inactive) | 59.8 µM (inactive) | 47.3 µM (inactive) | 39.2 µM (inactive) | 67.3 µM (inactive) | 17.5 µM (inactive) | 53.3 µM (inactive) | 27.2 µM (inactive) | 29.8 µM (inactive) | 65 µM (inactive) | 37.9 µM (inactive) | – | 34 µM (inactive) |
| CCCCCCc1cc2cc(-c3csc(-c4ccc(OC)cc4)n3)c(=O)oc2cc1O | 14.7 µM (inactive) | 15.8 µM (inactive) | 10.9 µM (inactive) | 96.2 µM (inactive) | 6.61 µM (inactive) | 17.8 µM (inactive) | 14 µM (inactive) | 12.2 µM (inactive) | 6.73 µM (inactive) | 20.2 µM (inactive) | 14.7 µM (inactive) | 15.8 µM (inactive) | 24.3 µM (inactive) | 7.82 µM (inactive) | 4.9 µM (inactive) | – | 12.8 µM (inactive) | 12.2 µM (inactive) | – |
| O=S(=O)(c1ccccc1)N1CCC1c1ccccc1 (stereo not given) | > 100 µM (inactive) | – | > 100 µM (inactive) | > 100 µM (inactive) | > 100 µM (inactive) | – | > 100 µM (inactive) | > 100 µM (inactive) | – | > 100 µM (inactive) | 56.4 µM (inactive) | > 100 µM (inactive) | 33.7 µM (inactive) | – | – | 98.9 µM (inactive) | > 100 µM (inactive) | > 100 µM (inactive) | – |
| O=C(/C=C/c1ccccc1)NNC(=O)c1c(Cl)c(Cl)c(Cl)c(Cl)c1-c1nc2ccccc2[nH]1 | 0.0442 µM (active) | – | 32.5 µM (inactive) | 32.8 µM (inactive) | 33.3 µM (inactive) | 24.2 µM (inactive) | 13.9 µM (inactive) | 25.8 µM (inactive) | 33.3 µM (inactive) | 17.6 µM (inactive) | 18.2 µM (inactive) | 39.4 µM (inactive) | 32.4 µM (inactive) | 18.4 µM (inactive) | 15.7 µM (inactive) | 24.6 µM (inactive) | 22.3 µM (inactive) | 23.7 µM (inactive) | 11.3 µM (inactive) |
| C/C(=N\Nc1nc2ccccc2s1)c1cc2ccccc2cn1 | 3.2 µM (inactive) | – | 2.88 µM (inactive) | 3.31 µM (inactive) | 3.95 µM (inactive) | 0.27 µM (active) | 1.73 µM (inactive) | 4.01 µM (inactive) | 3.03 µM (inactive) | 3.34 µM (inactive) | 3.24 µM (inactive) | 6.79 µM (inactive) | 0.41 µM (active) | 0.378 µM (active) | 5.24 µM (inactive) | 4.78 µM (inactive) | 3.83 µM (inactive) | 3.56 µM (inactive) | 8.69 µM (inactive) |
| O=C(Nc1ccc(S(=O)(=O)Nc2ncccn2)cc1)c1c2ccccc2nc2ccccc12 | > 100 µM (inactive) | – | > 100 µM (inactive) | > 100 µM (inactive) | > 100 µM (inactive) | > 100 µM (inactive) | < 0.01 µM (active) | > 100 µM (inactive) | > 100 µM (inactive) | > 100 µM (inactive) | > 100 µM (inactive) | > 100 µM (inactive) | > 100 µM (inactive) | – | > 100 µM (inactive) | > 100 µM (inactive) | > 100 µM (inactive) | > 100 µM (inactive) | > 100 µM (inactive) |
| OC1(c2ccccc2)CCCCCCCCC(O)(c2ccccc2)CCCCCCCC1 (stereo not given) | > 100 µM (inactive) | – | > 100 µM (inactive) | > 100 µM (inactive) | > 100 µM (inactive) | > 100 µM (inactive) | – | > 100 µM (inactive) | > 100 µM (inactive) | > 100 µM (inactive) | > 100 µM (inactive) | > 100 µM (inactive) | – | > 100 µM (inactive) | > 100 µM (inactive) | > 100 µM (inactive) | > 100 µM (inactive) | > 100 µM (inactive) | > 100 µM (inactive) |
| CC1(C)CCC2=C(O1)c1ccccc1C(=O)C2=O [LAPACHONE] | 0.647 µM (active) | – | – | 2.5 µM (inactive) | 0.432 µM (active) | 0.455 µM (active) | 1.35 µM (inactive) | 0.316 µM (active) | 1.03 µM (active) | 1.72 µM (inactive) | 0.358 µM (active) | 1.42 µM (inactive) | 0.708 µM (active) | 0.411 µM (active) | 2.07 µM (inactive) | 0.605 µM (active) | 0.463 µM (active) | – | 0.2 µM (active) |
